Measurements reported in ChEMBL document CHEMBL2434948, “Discovery, synthesis, and characterization of an orally bioavailable, brain penetrant inhibitor of mixed lineage kinase 3” (J Med Chem, 2013).
Calls of active or inactive are those of the source. The rule behind the calls is not given here.

What was measured:
[1] = target: T1, Mitogen-activated protein kinase 14 (Homo sapiens, UniProt Q16539); experiment: Inhibition of human wild type p38alpha at 1 uM by qPCR analysis
[2] = target: Tyrosine-protein kinase ABL1 (Homo sapiens, UniProt P00519); experiment: Inhibition of human ABL1 mutant at 1 uM by qPCR analysis
[3] = target: RAC-alpha serine/threonine-protein kinase (Homo sapiens) (UniProt P31749); experiment: Inhibition of human wild type AKT1 at 1 uM by qPCR analysis
[4] = target: Epidermal growth factor receptor (Homo sapiens) (UniProt P00533); experiment: Inhibition of human wild type EGFR at 1 uM by qPCR analysis
[5] = target: Mitogen-activated protein kinase 12 (Homo sapiens) (UniProt P53778); experiment: Inhibition of human wild type p38g at 1 uM by qPCR analysis
[6] = target: Mitogen-activated protein kinase 3 (Homo sapiens) (UniProt P27361); experiment: Inhibition of human wild type ERK1 at 1 uM by qPCR analysis
[7] = target: RAC-gamma serine/threonine-protein kinase (Homo sapiens) (UniProt Q9Y243); experiment: Inhibition of human wild type AKT3 at 1 uM by qPCR analysis
[8] = tested on: Leucine-rich repeat serine/threonine-protein kinase 2 (Homo sapiens), Q5S007 [G2019S]; experiment: Inhibition of human LRRK2 G2019S mutant at 1 uM by qPCR analysis relative to control
[9] = target: Protein delta homolog 1 (Homo sapiens) (UniProt P80370); experiment: Inhibition of human wild type DLK at 1 uM by qPCR analysis relative to control
[10] = target: Inhibitor of nuclear factor kappa-B kinase subunit beta (Homo sapiens) (UniProt O14920); experiment: Inhibition of human wild type IKKbeta at 1 uM by qPCR analysis relative to control
[11] = target: Inhibitor of nuclear factor kappa-B kinase subunit alpha (Homo sapiens) (UniProt O15111); experiment: Inhibition of human wild type IKKalpha at 1 uM by qPCR analysis relative to control
[12] = target: NUAK family SNF1-like kinase 1 (Homo sapiens) (UniProt O60285); experiment: Inhibition of human wild type ARK5 at 1 uM by qPCR analysis relative to control
[13] = target: SRSF protein kinase 2 (Homo sapiens) (UniProt P78362); experiment: Inhibition of human wild type SRPK2 at 1 uM by qPCR analysis relative to control
[14] = target: Maternal embryonic leucine zipper kinase (Homo sapiens) (UniProt Q14680); experiment: Inhibition of human wild type MELK at 1 uM by qPCR analysis relative to control
[15] = target: Dual specificity tyrosine-phosphorylation-regulated kinase 1B (Homo sapiens) (UniProt Q9Y463); experiment: Inhibition of human wild type DYRK1B at 1 uM by qPCR analysis relative to control
[16] = target: Cyclin-dependent kinase-like 2 (Homo sapiens) (UniProt Q92772); experiment: Inhibition of human wild type CDKL2 at 1 uM by qPCR analysis relative to control
[17] = target: Cyclin-dependent kinase 11B (Homo sapiens) (UniProt P21127); experiment: Inhibition of human wild type CDK11 at 1 uM by qPCR analysis relative to control
[18] = target: Mitogen-activated protein kinase kinase kinase 11 (Mus musculus, UniProt Q80XI6)
[19] = target: T2, Mitogen-activated protein kinase 8 (Homo sapiens, UniProt P45983)
Description: Inhibition of wild type human JNK1 by high throughput [33P]-ATP radiolabeled assay

[20] = target: T2, Mitogen-activated protein kinase 8; remark: listed apart in the source
Description: Inhibition of wild type human wild type JNK1 by qPCR analysis

[21] = target: T1, Mitogen-activated protein kinase 14
Description: Inhibition of wild type human P38a by high throughput ATP-[33P] radiolabeled assay

[22] = target: Mitogen-activated protein kinase kinase kinase 2 (Homo sapiens, UniProt Q9Y2U5)
Description: Inhibition of wild type human MEKK2 by high throughput ATP-[33P] radiolabeled assay

[23] = target: Tyrosine-protein kinase Lck (Homo sapiens, UniProt P06239)
Description: Inhibition of wild type human LCK by high throughput ATP-[33P] radiolabeled assay

[24] = target: Glycogen synthase kinase-3 beta (Homo sapiens, UniProt P49841)
Description: Inhibition of wild type human GSK3B by high throughput ATP-[33P] radiolabeled assay

[25] = target: Mitogen-activated protein kinase 1 (Homo sapiens, UniProt P28482)
Description: Inhibition of wild type human ERK2 by high throughput ATP-[33P] radiolabeled assay

[26] = target: Cyclin-dependent kinase 1 (Homo sapiens, UniProt P06493)
Description: Inhibition of wild type human CDK1 by high throughput ATP-[33P] radiolabeled assay

[27] = target: Aurora kinase C (Homo sapiens, UniProt Q9UQB9)
Description: Inhibition of wild type human Aurora kinase C kinase by high throughput ATP-[33P] radiolabeled assay

[28] = target: Aurora kinase B (Homo sapiens, UniProt Q96GD4)
Description: Inhibition of wild type human Aurora kinase B by high throughput ATP-[33P] radiolabeled assay

[29] = target: Aurora kinase A (Homo sapiens, UniProt O14965)
Description: Inhibition of wild type human Aurora kinase A by high throughput ATP-[33P] radiolabeled assay

[30] = target: Mitogen-activated protein kinase kinase kinase 9 (Homo sapiens, UniProt P80192)
Description: Inhibition of MLK1 (unknown origin)

[31] = target: Cytochrome P450 2D6 (Homo sapiens, UniProt P10635)
Description: Inhibition of CYP2D6 in human liver microsomes assessed as inhibition of diclofenac metabolism by HPLC/MS analysis

[32] = in vivo; conditions: C57BL/6, mouse, po, 10 mg/kg

T2 sequence (P45983 whole entry): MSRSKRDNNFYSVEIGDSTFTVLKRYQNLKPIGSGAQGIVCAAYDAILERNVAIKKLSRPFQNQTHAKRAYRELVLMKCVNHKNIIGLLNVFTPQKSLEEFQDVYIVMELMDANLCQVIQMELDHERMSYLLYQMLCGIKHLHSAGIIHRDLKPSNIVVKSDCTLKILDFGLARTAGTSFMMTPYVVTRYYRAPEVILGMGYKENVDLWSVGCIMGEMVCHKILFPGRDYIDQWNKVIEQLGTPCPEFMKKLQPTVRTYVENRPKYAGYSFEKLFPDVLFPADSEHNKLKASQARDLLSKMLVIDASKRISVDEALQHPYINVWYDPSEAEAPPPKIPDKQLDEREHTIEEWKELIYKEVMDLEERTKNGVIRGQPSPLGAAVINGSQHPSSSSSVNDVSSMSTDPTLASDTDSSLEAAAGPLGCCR
T1 sequence (Q16539 whole entry): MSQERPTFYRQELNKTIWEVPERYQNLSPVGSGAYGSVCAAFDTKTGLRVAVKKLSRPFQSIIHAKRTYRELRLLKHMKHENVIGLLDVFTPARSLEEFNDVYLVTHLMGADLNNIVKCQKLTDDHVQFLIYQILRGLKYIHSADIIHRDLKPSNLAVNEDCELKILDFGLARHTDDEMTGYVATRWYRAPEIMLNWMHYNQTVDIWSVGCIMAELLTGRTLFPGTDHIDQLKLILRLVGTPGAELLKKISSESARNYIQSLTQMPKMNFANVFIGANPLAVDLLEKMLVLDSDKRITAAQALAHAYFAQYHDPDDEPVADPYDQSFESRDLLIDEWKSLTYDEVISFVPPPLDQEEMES
Cyclin-dependent kinase 11B (Homo sapiens), sequence (P21127 whole entry): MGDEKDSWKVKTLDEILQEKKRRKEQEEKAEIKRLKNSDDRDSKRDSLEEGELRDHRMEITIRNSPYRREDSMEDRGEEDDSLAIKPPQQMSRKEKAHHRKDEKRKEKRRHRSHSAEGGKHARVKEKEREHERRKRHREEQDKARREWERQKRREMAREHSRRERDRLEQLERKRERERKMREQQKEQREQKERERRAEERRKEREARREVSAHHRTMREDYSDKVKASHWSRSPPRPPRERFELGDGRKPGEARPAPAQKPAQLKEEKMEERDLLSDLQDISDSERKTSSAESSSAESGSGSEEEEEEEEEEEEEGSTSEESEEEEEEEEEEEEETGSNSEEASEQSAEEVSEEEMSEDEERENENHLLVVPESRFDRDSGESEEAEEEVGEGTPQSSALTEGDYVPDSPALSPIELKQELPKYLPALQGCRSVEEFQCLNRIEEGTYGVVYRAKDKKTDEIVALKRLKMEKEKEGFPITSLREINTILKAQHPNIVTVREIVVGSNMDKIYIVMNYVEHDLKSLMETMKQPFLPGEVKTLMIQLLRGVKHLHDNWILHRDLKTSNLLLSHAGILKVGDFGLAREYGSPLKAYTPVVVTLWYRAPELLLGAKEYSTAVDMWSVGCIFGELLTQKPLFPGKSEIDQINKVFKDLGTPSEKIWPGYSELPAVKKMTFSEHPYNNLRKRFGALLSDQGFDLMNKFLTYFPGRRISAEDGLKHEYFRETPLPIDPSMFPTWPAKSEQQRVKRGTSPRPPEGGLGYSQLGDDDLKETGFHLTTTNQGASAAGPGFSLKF
Aurora kinase A, sequence (O14965 whole entry): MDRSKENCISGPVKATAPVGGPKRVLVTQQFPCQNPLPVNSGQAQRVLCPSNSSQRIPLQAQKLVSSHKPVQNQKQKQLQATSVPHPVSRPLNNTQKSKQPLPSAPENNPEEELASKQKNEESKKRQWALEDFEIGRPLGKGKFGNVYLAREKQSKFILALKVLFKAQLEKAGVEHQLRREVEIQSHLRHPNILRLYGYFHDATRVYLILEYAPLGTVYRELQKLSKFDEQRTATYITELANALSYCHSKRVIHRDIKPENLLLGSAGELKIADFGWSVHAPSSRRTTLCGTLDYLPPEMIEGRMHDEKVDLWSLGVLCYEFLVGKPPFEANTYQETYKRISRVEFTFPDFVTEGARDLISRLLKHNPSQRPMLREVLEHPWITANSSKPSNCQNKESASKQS
Protein delta homolog 1 (Homo sapiens), sequence (P80370 whole entry): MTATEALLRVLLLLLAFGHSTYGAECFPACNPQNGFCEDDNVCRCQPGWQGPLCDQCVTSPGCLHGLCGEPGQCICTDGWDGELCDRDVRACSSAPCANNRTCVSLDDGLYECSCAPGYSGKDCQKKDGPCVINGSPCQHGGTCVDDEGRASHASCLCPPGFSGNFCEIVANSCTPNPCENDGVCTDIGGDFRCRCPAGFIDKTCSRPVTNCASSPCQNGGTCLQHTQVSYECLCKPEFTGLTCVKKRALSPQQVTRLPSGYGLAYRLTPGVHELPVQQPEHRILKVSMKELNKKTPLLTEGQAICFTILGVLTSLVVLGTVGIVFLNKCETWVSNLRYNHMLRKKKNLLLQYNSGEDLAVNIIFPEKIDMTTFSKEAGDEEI
Glycogen synthase kinase-3 beta, sequence (P49841 whole entry): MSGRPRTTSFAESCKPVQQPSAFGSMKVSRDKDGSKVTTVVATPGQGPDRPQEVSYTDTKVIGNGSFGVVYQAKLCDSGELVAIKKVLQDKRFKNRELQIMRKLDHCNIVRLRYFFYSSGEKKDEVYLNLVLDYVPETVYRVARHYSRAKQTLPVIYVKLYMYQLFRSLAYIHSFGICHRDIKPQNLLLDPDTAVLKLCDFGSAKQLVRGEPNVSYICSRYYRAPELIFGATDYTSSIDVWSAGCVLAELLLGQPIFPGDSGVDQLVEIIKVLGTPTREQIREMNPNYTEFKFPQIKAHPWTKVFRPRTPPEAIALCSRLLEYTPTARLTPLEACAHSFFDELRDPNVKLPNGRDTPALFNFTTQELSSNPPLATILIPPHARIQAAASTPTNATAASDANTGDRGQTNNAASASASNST
Mitogen-activated protein kinase 1, sequence (P28482 whole entry): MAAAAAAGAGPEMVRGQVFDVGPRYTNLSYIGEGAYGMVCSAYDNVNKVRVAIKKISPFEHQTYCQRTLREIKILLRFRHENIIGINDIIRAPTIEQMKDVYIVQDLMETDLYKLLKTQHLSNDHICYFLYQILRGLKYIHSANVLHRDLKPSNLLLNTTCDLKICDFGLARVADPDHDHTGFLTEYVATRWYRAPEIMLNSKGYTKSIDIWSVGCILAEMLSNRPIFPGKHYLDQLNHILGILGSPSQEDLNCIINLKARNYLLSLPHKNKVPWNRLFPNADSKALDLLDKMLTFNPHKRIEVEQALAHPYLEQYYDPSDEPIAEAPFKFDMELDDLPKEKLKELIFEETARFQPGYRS
Cyclin-dependent kinase-like 2 (Homo sapiens), sequence (Q92772 whole entry): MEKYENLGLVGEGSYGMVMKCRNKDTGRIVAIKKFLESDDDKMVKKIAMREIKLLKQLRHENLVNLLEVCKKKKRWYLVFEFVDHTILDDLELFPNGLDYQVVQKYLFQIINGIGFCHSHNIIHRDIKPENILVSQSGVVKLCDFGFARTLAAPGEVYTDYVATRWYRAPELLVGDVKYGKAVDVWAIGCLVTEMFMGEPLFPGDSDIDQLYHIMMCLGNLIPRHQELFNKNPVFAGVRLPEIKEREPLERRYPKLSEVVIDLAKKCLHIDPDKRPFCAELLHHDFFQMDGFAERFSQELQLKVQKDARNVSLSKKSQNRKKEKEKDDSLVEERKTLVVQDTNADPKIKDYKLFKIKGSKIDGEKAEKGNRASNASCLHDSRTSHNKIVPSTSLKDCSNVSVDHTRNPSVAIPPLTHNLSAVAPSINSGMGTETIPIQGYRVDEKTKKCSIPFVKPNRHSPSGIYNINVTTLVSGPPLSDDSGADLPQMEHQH
Mitogen-activated protein kinase kinase kinase 11, sequence (Q80XI6 whole entry): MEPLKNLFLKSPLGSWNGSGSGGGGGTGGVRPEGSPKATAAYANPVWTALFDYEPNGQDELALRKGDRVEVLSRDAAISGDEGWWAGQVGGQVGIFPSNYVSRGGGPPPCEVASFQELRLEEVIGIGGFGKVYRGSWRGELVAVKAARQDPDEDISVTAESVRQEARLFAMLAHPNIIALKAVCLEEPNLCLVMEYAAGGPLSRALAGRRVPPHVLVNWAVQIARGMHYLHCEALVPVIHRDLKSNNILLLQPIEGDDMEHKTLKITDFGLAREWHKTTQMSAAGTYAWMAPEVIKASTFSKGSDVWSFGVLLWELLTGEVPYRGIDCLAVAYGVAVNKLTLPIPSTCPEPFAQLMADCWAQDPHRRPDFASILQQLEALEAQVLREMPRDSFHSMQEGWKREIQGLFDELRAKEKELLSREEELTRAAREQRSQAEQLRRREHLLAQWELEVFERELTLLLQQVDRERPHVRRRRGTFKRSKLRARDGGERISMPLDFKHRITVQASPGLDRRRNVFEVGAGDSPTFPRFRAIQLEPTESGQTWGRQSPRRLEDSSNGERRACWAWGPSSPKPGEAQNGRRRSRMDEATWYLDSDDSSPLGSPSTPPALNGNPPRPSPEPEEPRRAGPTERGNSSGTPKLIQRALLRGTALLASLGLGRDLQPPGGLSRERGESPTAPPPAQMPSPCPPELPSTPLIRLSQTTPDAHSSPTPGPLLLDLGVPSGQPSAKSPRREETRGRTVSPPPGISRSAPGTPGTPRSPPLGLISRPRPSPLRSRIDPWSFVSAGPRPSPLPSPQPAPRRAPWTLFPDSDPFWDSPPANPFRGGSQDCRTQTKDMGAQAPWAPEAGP
RAC-gamma serine/threonine-protein kinase (Homo sapiens), sequence (Q9Y243 whole entry): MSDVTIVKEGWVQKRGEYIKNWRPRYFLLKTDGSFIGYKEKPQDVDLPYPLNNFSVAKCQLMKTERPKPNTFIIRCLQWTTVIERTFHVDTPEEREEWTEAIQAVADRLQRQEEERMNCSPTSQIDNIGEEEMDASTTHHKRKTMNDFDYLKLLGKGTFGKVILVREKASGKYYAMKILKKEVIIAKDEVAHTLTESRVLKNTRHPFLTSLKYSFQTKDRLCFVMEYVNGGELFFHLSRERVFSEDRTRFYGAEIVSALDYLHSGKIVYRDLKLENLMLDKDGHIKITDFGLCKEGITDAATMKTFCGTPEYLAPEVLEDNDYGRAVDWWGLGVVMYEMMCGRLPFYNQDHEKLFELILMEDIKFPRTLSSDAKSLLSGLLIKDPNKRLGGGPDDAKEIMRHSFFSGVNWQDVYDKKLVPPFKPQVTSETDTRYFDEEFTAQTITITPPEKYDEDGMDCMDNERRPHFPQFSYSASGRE

CN1CCN(Cc2ccc(-c3cnc4[nH]cc(-c5ccc6[nH]ccc6c5)c4c3)cc2)CC1
inhibition [1]: inactive
inhibition [2]: Active
inhibition [3]: inactive
inhibition [4]: inactive
inhibition [5]: inactive
inhibition [6]: inactive
inhibition [7]: inactive
inhibition [8]: 96%
inhibition [9]: 88%
inhibition [10]: > 90%
inhibition [11]: > 90%
inhibition [12]: > 90%
inhibition [13]: > 90%
inhibition [14]: > 90%
inhibition [15]: > 90%
inhibition [16]: > 90%
inhibition [17]: > 90%
IC50 [18]: 460 nM
IC50 [19]: 3200 nM
IC50 [20]: 3280 nM
IC50 [21]: 12000 nM
IC50 [22]: 661 nM
IC50 [23]: 333 nM
IC50 [24]: > 10000 nM
IC50 [25]: 6290 nM
IC50 [26]: 1130 nM
IC50 [27]: 290 nM
IC50 [28]: 123 nM
IC50 [29]: 108 nM
IC50 [30]: 19 nM
IC50 [31]: > 30000 nM
Tmax [32]: 4 h
